Data published in US9012410B2, “Method of treating intrauterine inflammation” (Case Western Reserve University, priority 2006, dated 2015).

Experiments:
[1] = target: T1, human TLR2 (Homo sapiens, UniProt O60603+Q15399); test: IL-8 expression from HEK293/hTLR2 cells by ELISA; assay type: cell-based; conditions: 24-h incubation, varying concentrations
T1 construct: host or cells: HEK293
Experimental: (§1) HEK293 or HEK293/hTLR2 and HEK293/hTLR4/MD2/CD14, were seeded into 96-well plates at a density of 50,000 cells/well and allowed to grow overnight. The cells were then incubated with and N-palmitoyl(S)-[2,3-bis(palmitoyloxy)-(2, RS)-propyl]-Cys-Scr-Lys4 (Pam3CSK4), ultrapure Escherichia coli LPS, or fresh cultures of F. nucleatum 12230 at the indicated doses followed by a 24-h incubation. The supernatant was harvested and centrifuged and the amount of IL-8 secreted was determined by ELISA.
(§2) Immunlon flat-bottom 96-well microliter plates (Thermo Electron, Mass) were coated with goat anti-human IL-8 Ab (4 μg/ml; R&D System) in 100 μl of coating buffer (0.05 M carbonate buffer (pH 9.6)). After overnight incubation at 4° C., the plates were washed six times with washing buffer, i.e., 0.05% Tween 20 in PBS (Sigma-Aldrich), followed by an overnight incubation in blocking buffer (1% BSA in PBS) at 4° C. The plates were washed four times before an aliquot of 100 μl of diluted mammalian cell culture supernatant or human IL-8 (R&D Systems, Minn) were added to each well and incubated overnight at 4° C. The plates were washed, followed by 3-h incubation with polyclonal rabbit anti-human 11,-8 Ab (1/1000; Endogen) at room temperature. […] The light absorbance was measured at 450 nm on a Bio-Rad Model 680 microplate reader. […]

[2] = target: T2, human TLR4/MD2/CD14 (Homo sapiens, UniProt O00206+Q9Y6Y9); test: IL-8 expression from HEK293/hTLR4/MD2/CD14 cells by ELISA; assay type: cell-based; conditions: 24-h incubation, varying concentrations
T2 construct: host or cells: HEK293
Experimental: as §1, §2

[3] = system: mice; conditions: literature (Elovitz et al., 2006); cited from earlier work

T1 sequence (O60603 21-784): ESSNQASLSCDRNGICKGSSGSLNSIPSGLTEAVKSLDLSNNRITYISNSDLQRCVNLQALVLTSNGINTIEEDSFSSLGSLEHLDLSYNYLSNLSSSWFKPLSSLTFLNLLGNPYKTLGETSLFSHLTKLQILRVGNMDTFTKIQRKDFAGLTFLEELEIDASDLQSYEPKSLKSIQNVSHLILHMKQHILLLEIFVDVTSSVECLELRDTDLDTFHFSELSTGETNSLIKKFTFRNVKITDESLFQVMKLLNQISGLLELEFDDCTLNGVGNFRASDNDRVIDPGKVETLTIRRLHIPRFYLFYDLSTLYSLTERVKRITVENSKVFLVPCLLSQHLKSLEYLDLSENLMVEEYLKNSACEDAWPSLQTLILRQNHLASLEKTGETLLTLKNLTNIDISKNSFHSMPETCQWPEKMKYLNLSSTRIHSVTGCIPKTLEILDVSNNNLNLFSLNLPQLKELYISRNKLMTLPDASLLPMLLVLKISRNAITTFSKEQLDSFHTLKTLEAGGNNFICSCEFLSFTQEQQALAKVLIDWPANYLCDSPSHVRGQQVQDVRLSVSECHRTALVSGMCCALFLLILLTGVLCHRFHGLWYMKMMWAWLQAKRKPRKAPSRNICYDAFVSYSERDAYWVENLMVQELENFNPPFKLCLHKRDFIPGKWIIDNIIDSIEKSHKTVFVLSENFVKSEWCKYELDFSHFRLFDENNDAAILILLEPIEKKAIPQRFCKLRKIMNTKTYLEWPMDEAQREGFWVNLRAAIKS
T1 sequence (Q15399 25-786): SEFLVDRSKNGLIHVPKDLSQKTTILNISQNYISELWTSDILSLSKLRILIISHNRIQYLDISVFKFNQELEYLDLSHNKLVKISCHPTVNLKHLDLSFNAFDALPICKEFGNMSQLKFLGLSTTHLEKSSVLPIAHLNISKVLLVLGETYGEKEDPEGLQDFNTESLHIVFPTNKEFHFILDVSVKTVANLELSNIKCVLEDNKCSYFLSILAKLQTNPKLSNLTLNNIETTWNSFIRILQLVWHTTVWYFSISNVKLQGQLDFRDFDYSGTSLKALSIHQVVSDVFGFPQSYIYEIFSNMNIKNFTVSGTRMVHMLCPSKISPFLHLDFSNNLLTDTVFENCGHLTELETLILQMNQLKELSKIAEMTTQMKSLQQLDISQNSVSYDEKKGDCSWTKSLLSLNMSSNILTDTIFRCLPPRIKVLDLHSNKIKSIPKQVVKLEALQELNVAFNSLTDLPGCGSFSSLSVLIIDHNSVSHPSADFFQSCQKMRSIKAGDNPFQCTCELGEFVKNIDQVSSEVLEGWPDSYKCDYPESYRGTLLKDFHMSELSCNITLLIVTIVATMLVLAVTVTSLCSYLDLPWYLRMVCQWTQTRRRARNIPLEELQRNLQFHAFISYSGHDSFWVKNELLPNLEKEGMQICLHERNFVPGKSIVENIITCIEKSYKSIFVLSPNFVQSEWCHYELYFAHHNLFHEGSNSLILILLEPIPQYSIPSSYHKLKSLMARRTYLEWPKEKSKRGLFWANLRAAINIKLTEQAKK
T2 sequence (O00206 24-839): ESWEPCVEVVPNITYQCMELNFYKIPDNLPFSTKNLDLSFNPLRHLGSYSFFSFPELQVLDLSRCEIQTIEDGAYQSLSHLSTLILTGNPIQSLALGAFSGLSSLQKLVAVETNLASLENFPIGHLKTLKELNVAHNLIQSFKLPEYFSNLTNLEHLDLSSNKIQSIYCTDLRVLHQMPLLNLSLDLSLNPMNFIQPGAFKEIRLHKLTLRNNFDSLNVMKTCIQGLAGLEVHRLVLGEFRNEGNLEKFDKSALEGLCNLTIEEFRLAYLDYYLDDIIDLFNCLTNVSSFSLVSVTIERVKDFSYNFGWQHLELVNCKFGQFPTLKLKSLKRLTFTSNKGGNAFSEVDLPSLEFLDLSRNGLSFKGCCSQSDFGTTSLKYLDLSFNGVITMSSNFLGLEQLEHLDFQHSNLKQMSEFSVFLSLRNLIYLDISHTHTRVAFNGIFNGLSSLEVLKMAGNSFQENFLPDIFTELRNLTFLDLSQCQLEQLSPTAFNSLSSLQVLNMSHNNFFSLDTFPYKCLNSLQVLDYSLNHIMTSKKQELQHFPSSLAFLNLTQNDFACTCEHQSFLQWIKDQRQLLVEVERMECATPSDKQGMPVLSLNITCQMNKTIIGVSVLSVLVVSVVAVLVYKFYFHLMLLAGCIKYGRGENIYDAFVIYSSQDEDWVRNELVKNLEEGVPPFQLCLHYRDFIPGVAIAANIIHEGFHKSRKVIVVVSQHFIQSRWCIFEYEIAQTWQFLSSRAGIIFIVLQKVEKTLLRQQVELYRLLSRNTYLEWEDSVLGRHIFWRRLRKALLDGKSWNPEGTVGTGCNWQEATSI
T2 sequence (Q9Y6Y9 19-160): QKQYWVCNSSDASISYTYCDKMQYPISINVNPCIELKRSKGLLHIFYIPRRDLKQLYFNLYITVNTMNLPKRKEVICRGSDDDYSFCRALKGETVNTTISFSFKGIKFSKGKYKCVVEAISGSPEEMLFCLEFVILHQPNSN

activation of TLR4 (IL-8 expression) [2] | Compound | activation of TLR2 (IL-8 expression) [1] | maternal morbidity in mice [3]
not vice versa | N-palmitoyl(S)-[2,3-bis(palmitoyloxy)-(2, RS)-propyl]-Cys-Scr-Lys4 [Pam3CSK4] | only activated their respective receptors | –
– | CCCCCC(=O)O[C@]1(C(C)=O)CC[C@H]2[C@@H]3CCC4=CC(=O)CC[C@]4(C)[C@H]3CC[C@@]21C [17-α hydroxyprogesterone caproate] | – | significant maternal morbidity
